The numbers were not newly measured in article PMC10772668 (Clinical and Translational Science, 2023), which cites them from elsewhere.

The conditions of this series: cited from earlier work.

As for `CN1C(=O)[C@@H](NC(=O)c2nnc(Cc3ccccc3)[nH]2)COc2ccccc21` [GSK2982772], under “clinical development”, the Safety and tolerability entry was “safe and well‐tolerated”. In addition, the “Tolerability and ALT abnormalities” value (healthy participants) is recorded as “well‐tolerated with no reports of ALT abnormalities”.
